Tests used:
NPK76-II-72-1 + AZD7762 = compound: CC1CC(=O)N(C2=CN=C(N=C2N1C3CCCC3)NC4=C(C=C(C=C4)C(=O)NC5CCN(CC5)C)OC)C [NPK76-II-72-1] + NC(=O)Nc1cc(-c2cccc(F)c2)sc1C(=O)N[C@H]1CCCNC1 [AZD7762] (partner 0.2 µM); test: relative viability (nuclei count vs DMSO), 5 days (fraction); higher = more cells survive
Outline: (§1)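 The day after seeding in 1536-well plates, lung cancer cell lines were treated by pin tool with a single drug, or with a fixed anchor-drug dose together with five library-drug doses (not always all listed) in √10 steps. After 5 days, a combined fix-and-stain solution (final 0.05% Triton X-100, 1% formaldehyde, 1 ug/ml Hoechst) was added. Nuclei counted on 4× images gave relative viability as treated counts over vehicle counts, reported as the median of duplicate plates.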

[1] = compound: CC1CC(=O)N(C2=CN=C(N=C2N1C3CCCC3)NC4=C(C=C(C=C4)C(=O)NC5CCN(CC5)C)OC)C [NPK76-II-72-1] + O=C(CCCCCCC(=O)Nc1ccccc1)NO [Vorinostat] (partner 1 µM); test: as above
Outline: as §1

Row | Cell Line | relative viability (NPK76-II-72-1 + AZD7762; first compound 0.01 µM) | relative viability (NPK76-II-72-1 + AZD7762; first compound 0.03162 µM) | relative viability (NPK76-II-72-1 + AZD7762; first compound 0.1 µM) | relative viability (NPK76-II-72-1 + AZD7762; first compound 0.3162 µM) | relative viability (NPK76-II-72-1 + AZD7762; first compound 1 µM) | relative viability ([1]; first compound 0.01 µM) | relative viability ([1]; first compound 0.03162 µM) | relative viability ([1]; first compound 0.1 µM) | relative viability ([1]; first compound 0.3162 µM) | relative viability ([1]; first compound 1 µM)
1 | NCI-H596 | 1.13 | 1.12 | 1.27 | 1.15 | 1.1 | 0.718 | 0.615 | 0.696 | 0.631 | 0.723
2 | A-427 | 0.682 | 0.673 | 0.945 | 0.796 | 0.814 | 0.824 | 0.856 | 0.877 | 0.855 | 0.883
3 | EMC-BAC-2 | 1.02 | 1.07 | 1.02 | 1.09 | 1.17 | 0.423 | 0.186 | 0.493 | 0.416 | 0.524
4 | NCI-H441 | 1.12 | 1.07 | 1.08 | 1.04 | 1.07 | 0.64 | 0.839 | 0.881 | 0.881 | 0.851
5 | LCLC-103H |  | 0.851 | 0.789 | 0.852 | 0.745 |  | 0.83 | 0.769 | 0.745 | 0.838
6 | HCC-827 | 0.2 | 0.203 | 0.243 | 0.129 | 0.259 | 0.825 | 0.9 | 0.831 | 0.817 | 0.942
7 | NCI-H1355 | 0.686 | 0.792 | 0.857 | 0.767 | 0.748 | 0.597 | 0.613 | 0.606 | 0.56 | 0.715
8 | NCI-H1734 | 0.531 | 0.557 | 0.676 | 0.532 | 0.667 | 0.857 | 0.845 | 0.779 | 0.764 | 0.951
9 | HARA | 0.292 | 0.464 | 0.297 |  | 0.451 | 0.493 | 0.668 | 0.564 | 0.485 | 0.603
10 | HCC-15 | 1.18 | 1.32 | 0.549 | 1.16 | 1.23 | 0.785 | 0.914 | 0.814 | 0.767 | 0.91
11 | LCLC-97TM1 | 0.298 | 0.404 | 0.27 |  | 0.298 | 0.682 | 1.03 | 0.561 | 0.61 | 0.814
12 | RERF-LC-KJ | 0.938 | 0.931 | 0.987 | 0.763 | 1.15 | 0.639 | 0.725 | 0.662 | 0.701 | 0.673
13 | NCI-H1651 | 0.436 | 0.449 | 0.471 | 0.377 | 0.501 | 0.57 | 0.565 | 0.634 | 0.557 | 0.607
14 | NCI-H2170 | 0.799 | 0.891 | 0.892 | 0.358 | 0.975 | 0.731 | 0.855 | 0.823 | 0.38 | 0.941
15 | NCI-H2023 |  |  |  |  |  | 0.504 | 0.655 | 0.69 | 0.563 | 0.614
16 | LC-2-ad | 0.833 | 0.855 | 0.852 | 0.879 | 0.895 | 0.619 | 0.768 | 0.668 | 0.755 | 0.698
17 | NCI-H1703 | 0.144 | 0.115 | 0.174 |  | 0.0937 |  |  |  |  | 
18 | NCI-H1437 | 1.14 | 1.15 | 1.1 | 1.04 | 1.17 | 0.779 | 0.907 | 0.736 | 0.748 | 0.894
19 | SK-LU-1 |  |  |  |  |  | 0.722 | 0.77 | 0.756 | 0.77 | 0.851
20 | H3255 | 0.841 | 0.815 | 0.959 | 0.655 | 0.988 | 0.873 | 0.605 | 0.722 |  | 0.797

Row | Cell Line | relative viability (NPK76-II-72-1 + AZD7762; first compound 0.01 µM) | relative viability (NPK76-II-72-1 + AZD7762; first compound 0.03162 µM) | relative viability (NPK76-II-72-1 + AZD7762; first compound 0.1 µM) | relative viability (NPK76-II-72-1 + AZD7762; first compound 0.3162 µM) | relative viability (NPK76-II-72-1 + AZD7762; first compound 1 µM) | relative viability ([1]; first compound 0.01 µM) | relative viability ([1]; first compound 0.03162 µM) | relative viability ([1]; first compound 0.1 µM) | relative viability ([1]; first compound 0.3162 µM) | relative viability ([1]; first compound 1 µM)
21 | NCI-H1792 |  | 0.702 | 0.848 | 0.686 | 0.732 |  |  |  |  | 
22 | SK-MES-1 |  |  |  |  |  | 1.06 | 1.05 | 1.12 | 1.17 | 1.22
23 | NCI-H1650 |  |  |  |  |  | 0.571 | 0.508 | 0.658 | 0.57 | 0.555
24 | NCI-H2087 | 1.06 | 1.32 | 1.26 | 1.28 | 1.32 | 0.569 | 0.854 | 0.572 | 0.485 | 0.814
25 | HCC-366 | 0.233 | 0.388 | 0.375 | 0.246 | 0.468 | 0.358 | 0.361 | 0.394 | 0.322 | 0.461
26 | NCI-H727 | 0.466 | 0.67 | 0.545 | 0.537 | 0.558 | 1.23 | 1.33 | 1.2 | 1.22 | 1.29
27 | LU99A | 0.425 | 0.298 | 0.503 | 0.248 | 0.402 | 0.437 | 0.492 | 0.62 | 0.535 | 0.528
28 | NCI-H647 | 0.4 | 0.476 | 0.578 | 0.434 | 0.379 | 0.575 | 0.568 | 0.4 | 0.668 | 0.725
29 | HCC-78 | 0.634 | 0.574 | 0.593 | 0.521 | 0.755 | 0.456 | 0.461 | 0.463 | 0.418 | 0.499
30 | NCI-H1755 | 0.356 | 0.468 | 0.431 | 0.464 | 0.436 | 0.89 | 0.76 | 0.928 | 0.82 | 0.782
31 | NCI-H3122 | 0.88 | 1 | 1.03 | 0.996 | 0.973 | 0.943 | 0.923 | 1.05 | 1.05 | 1.05
32 | NCI-H2342 | 0.501 | 0.435 | 0.673 | 0.328 | 0.462 | 0.742 | 0.917 | 0.783 | 0.658 | 0.763
33 | PC-14 | 0.356 | 0.312 | 0.337 | 0.358 | 0.344 | 0.717 | 0.73 | 0.684 | 0.698 | 0.807
34 | SW 900 | 0.535 | 0.645 | 0.771 | 0.569 | 0.761 | 0.515 | 0.624 | 0.515 | 0.433 | 0.559
35 | NCI-H2347 | 0.805 | 0.755 | 0.646 | 0.704 | 0.883 | 0.744 | 0.588 | 0.656 | 0.641 | 0.603
36 | NCI-H2228 |  |  |  |  |  | 0.543 | 0.608 | 0.587 | 0.589 | 0.578
37 | NCI-H1793 |  | 0.69 | 0.618 | 0.238 | 0.566 |  | 0.693 | 0.809 | 0.61 | 0.825
38 | EKVX | 0.672 | 0.629 | 0.718 |  | 0.83 | 0.634 | 0.736 | 0.684 |  | 0.921
39 | HOP-62 | 0.405 | 0.507 | 0.556 | 0.444 | 0.514 | 0.618 | 0.767 | 0.598 | 0.39 | 0.713
40 | NCI-H2126 | 0.95 | 1.07 | 0.99 | 0.989 | 1.01 | 0.761 | 0.798 | 0.846 | 0.713 | 0.828

Row | Cell Line | relative viability (NPK76-II-72-1 + AZD7762; first compound 0.01 µM) | relative viability (NPK76-II-72-1 + AZD7762; first compound 0.03162 µM) | relative viability (NPK76-II-72-1 + AZD7762; first compound 0.1 µM) | relative viability (NPK76-II-72-1 + AZD7762; first compound 0.3162 µM) | relative viability (NPK76-II-72-1 + AZD7762; first compound 1 µM) | relative viability ([1]; first compound 0.01 µM) | relative viability ([1]; first compound 0.03162 µM) | relative viability ([1]; first compound 0.1 µM) | relative viability ([1]; first compound 0.3162 µM) | relative viability ([1]; first compound 1 µM)
41 | SW 1573 |  |  |  |  |  | 0.787 | 0.916 | 0.637 | 0.532 | 0.831
42 | NCI-H358 | 0.521 | 0.525 | 0.611 |  | 0.683 | 0.674 | 0.647 | 0.754 |  | 0.818
43 | EPLC-272H | 0.183 | 0.207 | 0.22 | 0.254 | 0.208 | 0.403 | 0.4 | 0.456 | 0.574 | 0.41
44 | PC-3 [JPC-3] | 0.766 |  | 0.738 | 0.917 | 0.751 | 0.807 |  | 0.799 | 0.848 | 0.905
45 | NCI-H650 | 1.13 | 0.997 | 0.97 | 0.896 | 0.995 | 0.445 | 0.441 | 0.453 | 0.307 | 0.521
46 | NCI-H838 | 0.826 | 0.961 | 0.947 | 0.912 | 0.976 | 0.69 | 0.73 | 0.717 | 0.684 | 0.672
47 | COR-L 105 |  |  |  |  |  | 0.747 | 0.807 | 0.832 | 0.82 | 0.989
48 | NCI-H2405 | 0.689 | 0.775 | 0.728 | 0.746 | 0.705 | 0.949 | 0.791 | 1.04 | 1.07 | 1.03
49 | NCI-H1395 | 0.388 | 0.341 | 0.4 | 0.396 | 0.387 | 0.711 | 0.67 | 0.642 | 0.721 | 0.84
50 | NCI-H661 |  |  |  |  |  | 0.772 | 0.785 | 0.755 | 0.735 | 0.795
51 | NCI-H1915 | 0.709 | 0.751 | 0.665 | 0.647 | 0.726 | 0.504 | 0.537 | 0.483 | 0.442 | 0.574
52 | NCI-H522 | 0.945 | 0.826 | 0.786 |  | 0.809 | 0.736 | 0.902 | 0.995 |  | 0.79
53 | CAL-12T | 0.65 | 0.718 | 0.506 | 0.645 | 0.724 | 0.532 | 0.798 | 0.687 | 0.812 | 0.688
54 | LXF-289 | 1.07 | 1.12 | 0.992 | 1.1 | 1.08 | 0.772 | 0.714 | 0.703 | 0.655 | 0.756
55 | NCI-H460 | 0.631 | 0.652 | 0.666 | 0.555 | 0.75 | 0.684 | 0.799 | 0.703 | 0.748 | 0.636
56 | NCI-H2009 |  |  |  |  |  | 0.696 | 0.713 | 0.705 | 0.728 | 0.77
57 | IA-LM |  |  |  |  |  | 1.1 | 0.923 | 0.852 | 1.03 | 1.1
58 | COR-L23 |  |  |  |  |  | 0.408 | 0.519 | 0.408 | 0.427 | 0.48
59 | NCI-H520 |  |  |  |  |  | 0.706 | 0.84 | 0.698 | 0.741 | 0.748

Reference: the supplement of paper PMC10307832
